One assay relates to cyclooxygenase. Put plainly: In vitro effect on [14C]arachidonic acid metabolism in a cell-free homogenate of murine pulmonary tissue. It is filed as biochemical, CBA mice. The settings on record: compound 10^−4 M; for Prostanoids: b308 reads these as % cyclooxygenase inhibition; for 6-keto-PGF1α / PGF2α: first of only four cells in the row; for TXB2 / PGE2: second of only four cells in the row. The protocol: Studies of arachidonic acid metabolism was carried out on females CBA mice who where fed a standard vivarium fodder. Animals (mice) were sacrificed, lungs were extracted, homogenized in a glass homogenizer manufactured by the firm “Wheaton” (USA) at 4° C. in 10 volumes of 0.05 M Tris-HCl buffer. Aliquots (0.5 ml) of supernatant were incubated in 0.5 μCi [1-C^14]-arachidonic acid [C^14]-AA, “Amersham”, England; specific activity 50-60 μCi/mmole) at 37° C. for 30 minutes. Non-metabolized [αC^14]-AA and products of metabolism thereof were extracted in 20 volumes of chloroform and methanol mixture (1:1) in extraction efficacy not less than 90% assessed using [C^14]-PGF2α. [C^14]-AA and metabolites thereof were separated and identified using TLC (the plates Kieselgel 60 of the “Merck” firm, Germany) using as an organic phase, the system of solvents (ethylacetate, isooctane, acetic acid, water—110:50:20:100) and labeled standards. Densitometry of autoradiochromograms obtained on the X-ray film X-Omat AR (“Kodak”, USA) and HS 11 (“ORWO”, Germany), was performed on the densiscan KS 3 (“Kipp and Zonnen”, Holland). Quantitative analysis of individual eicosanoids was carried out using radiometry of fractions obtained by high-performance liquid chromatography (the HPLC-system of the “Gilson” form, France; the column ZORBAX C8 of the “Du Pont” firm, USA) and by elution of spots on TLC-plates. The tested compounds were administered at concentration 10^−4 M.

For assay [1], the system named is "acetic contortions" in mice. The assay is described as follows: Analgetic activity on the model "acetic contortions". The format is in vivo, white mongrel mice. The settings on record: dose 10 mg/kg (table title); for inhibition in vivo at 10 mg/kg / response vs control in vivo at 10 mg/kg: Mus musculus, ip, 0.25 h; for inhibition in vivo at 10 mg/kg: read-out: Analgetic effect (%); for response vs control in vivo at 10 mg/kg: read-out: C, % to the control; for C ± m (the number of contortions for 15 minutes): 60 minutes prior to acetic acid. The method, then: The tests were conducted on males of white mongrel mice weighing 22-24 grams. The specific pain response (“contortions”) were elicited by intraperitoneal administration to mice of 0.75% acetic acid solution. The following signs were taken into consideration: the number of seizure contractions of abdominal muscles accompanied by stretching the hind limbs and sagging the back. Analgetic effect was assessed by decrease in the number of contortions in animals in percent to the control for 15 minutes post administration of acetic acid. The technique of the tests is disclosed in Koster R., Anderson M., de Beer B.//Fed. Proc. 1959. V. 18. P. 412. Compounds under testing were administered intraperitoneally (using a probe) at a dose 10 μg/kg 60 minutes prior to injection of the acid. Diclofenac (10 mg/kg) was used as a reference drug. Analgetic effect was calculated according to the formula: […]
wherein Ck is the number of contortions in the control group,
Co is the number of contortions in the test group.

In the next assay the test system is "hot plate" test in mice. The assay is described as follows: Analgetic activity on the model "hot plate". The format is in vivo, white mongrel mice. The settings on record: 10 mg/kg; for response vs control in vivo at 10 mg/kg / change in vivo at 10 mg/kg: Mus musculus; for response vs control in vivo at 10 mg/kg: percent of background, read-out: Latent time of NT (%); for change in vivo at 10 mg/kg: read-out: Analgesia (%). The method, then:
The tests were conducted on males of white mongrel mice weighing 22-24 grams. The animals were individually placed on a hot plate (manufactured by the firm “Ugo Basile”), a temperature of which remained constant and was equal to 55° C. The following first manifestations of pain reaction were recorded: licking paws, jumping up prior to administration of a substance (background parameters) and 0.5, 1, 2, 3 and 4 hours post administration of a substance. Substances were administered […] (using a probe). A weighed amount of a substance was thoroughly mixed in 0.1 ml Tween 80 until a solution was obtained, then normal saline was added up to a volume of 0.5 ml. Average latent time of nociception threshold (NT) was calculated in every group. The results obtained were expressed in percent of the background values. Analgetic effect (in %) was calculated according to the formula: A−100%=X, wherein A is a background parameter; X is analgetic effect (in %)
A is (time 0.5 to 4 hours post administration×100%): background time
As reference drugs, Analgin (150 mg/kg), Paracetamol (200 mg/kg), Ketorol (10 mg/kg), were used.

[2] abbreviates: 120 minutes post administration.

Structures are written as SMILES. Where two headings read alike, the source gives them in different places.

Take `O=C(Cc1ccc(O)cc1)NCCc1ccccc1`: in the assay on cyclooxygenase (37° C., 30 minutes), the Prostanoids is given as −40. In the assay on cyclooxygenase (37° C., 30 minutes, change), the “AA (arachidonic acid)” value is “+40”. Further, in the assay with cyclooxygenase, the “6-keto-PGF1α / PGF2α” value was −45 and the “TXB2 / PGE2” value is −33. In assay [1], the inhibition in vivo at 10 mg/kg was 56.5%, the response vs control in vivo at 10 mg/kg is 43.5% and the “C ± m (the number of contortions for 15 minutes)” value came out at 16.0 ± 4.5. The “latent time of nociception threshold, M ± m” value (“latent time” below) in the assay with "hot plate" test in mice (60 minutes post administration) is 8.5 ± 0.27 s. Further, the “latent time” value with "hot plate" test in mice (setting [2]) was found to be 6.5 ± 1.16 s. Also, in the assay with "hot plate" test in mice (1 h, 60 minutes), the response vs control in vivo at 10 mg/kg amounted to 160% and the change in vivo at 10 mg/kg is 59.6%. Besides, in the assay with "hot plate" test in mice (2 h, 120 minutes), the response vs control in vivo at 10 mg/kg amounted to 123% and the change in vivo at 10 mg/kg is 23.3%.

Consider `COC(=O)C(Cc1ccc(O)cc1)NC(=O)Cc1ccc(O)cc1` (centres unmarked) [Compound IV, p-hydroxyphenylacetyltyrosine methyl ester], for which the inhibition in vivo at 10 mg/kg in assay [1] was determined as 22.1%. The response vs control in vivo at 10 mg/kg in assay [1] was 77.9%; in the assay on "hot plate" test in mice (0.5 h, 30 minutes), 104%; in the assay on "hot plate" test in mice (1 h, 60 minutes), 110%; with "hot plate" test in mice (2 h, 120 minutes) it was 118%. For the same compound, the “C ± m (the number of contortions for 15 minutes)” value in assay [1] is listed as 20.8 ± 1.9. Moreover, the entries for the “latent time” value with "hot plate" test in mice (30 minutes post administration), in the assay on "hot plate" test in mice (60 minutes post administration) and in the assay with "hot plate" test in mice (setting [2]) were 5.24 ± 0.88 s, 5.54 ± 0.32 s and 5.93 ± 0.59 s, respectively. Moreover, the change in vivo at 10 mg/kg in the assay on "hot plate" test in mice (0.5 h, 30 minutes) is 4.2%; in the assay with "hot plate" test in mice (1 h, 60 minutes), 10.1%; in the assay with "hot plate" test in mice (2 h, 120 minutes), 17.9%.

Take `CC(=O)N[C@@H](Cc1ccc(O)cc1)C(=O)NCCc1ccccc1` [Compound XXVIII, acetyltyrosylphenylethylamine]: in assay [1], the inhibition in vivo at 10 mg/kg came out at 42.1%. Besides, the response vs control in vivo at 10 mg/kg worked out at 57.9% in assay [1]; 192% with "hot plate" test in mice (0.5 h, 30 minutes); 169% in the assay with "hot plate" test in mice (1 h, 60 minutes); 242% in the assay on "hot plate" test in mice (2 h, 120 minutes). The “C ± m (the number of contortions for 15 minutes)” value in assay [1] was determined as 15.9 ± 2.4. Besides, the “latent time” value in the assay with "hot plate" test in mice (30 minutes post administration) worked out at 9.2 ± 1.8 s; with "hot plate" test in mice (60 minutes post administration), 8.1 ± 1.0 s; in the assay on "hot plate" test in mice (setting [2]), 11.6 ± 2.5 s. Moreover, the change in vivo at 10 mg/kg amounted to 91.7% in the assay with "hot plate" test in mice (0.5 h, 30 minutes); 68.8% in the assay with "hot plate" test in mice (1 h, 60 minutes); 142% with "hot plate" test in mice (2 h, 120 minutes).

`O=C(CCc1ccccc1)NCCc1ccc(O)cc1` [Compound XII, 3-phenylpropionyltyramine]: the Prostanoids in the assay with cyclooxygenase (37° C., 30 minutes) is −44. Besides, in the assay on cyclooxygenase (37° C., 30 minutes, change), the “AA (arachidonic acid)” value was “+42”. In the assay on cyclooxygenase, the “6-keto-PGF1α / PGF2α” value is on record as −42 and the “TXB2 / PGE2” value is −47. For the same compound, in assay [1], the inhibition in vivo at 10 mg/kg amounted to 41.4%, the response vs control in vivo at 10 mg/kg came to 58.6% and the “C ± m (the number of contortions for 15 minutes)” value worked out at 20.1 ± 2.1.

On to `O=C(Cc1ccc(O)cc1)NC(Cc1ccc(O)cc1)C(=O)O` (centres unmarked) [Compound II, p-hydroxyphenylacetyltyrosine], for which, in assay [1], the inhibition in vivo at 10 mg/kg was 24.8%. The response vs control in vivo at 10 mg/kg in assay [1] stood at 75.2%; with "hot plate" test in mice (0.5 h, 30 minutes), 176%; with "hot plate" test in mice (1 h, 60 minutes), 179%; in the assay with "hot plate" test in mice (2 h, 120 minutes), 215%. For the same compound, the “C ± m (the number of contortions for 15 minutes)” value in assay [1] came out at 24.2 ± 1.9. Also, the “latent time” value with "hot plate" test in mice (30 minutes post administration) was determined as 6.0 ± 0.6 s; in the assay with "hot plate" test in mice (60 minutes post administration) it was 6.1 ± 0.8 s; with "hot plate" test in mice (setting [2]) it was 7.3 ± 0.6 s. The change in vivo at 10 mg/kg in the assay with "hot plate" test in mice (0.5 h, 30 minutes) worked out at 76.5%; with "hot plate" test in mice (1 h, 60 minutes), 79.4%; in the assay with "hot plate" test in mice (2 h, 120 minutes) it was 115%.

As for `O=C(CCc1ccc(O)cc1)N[C@@H](Cc1ccc(O)cc1)C(=O)O` [Compound XIV, 3-(p-hydroxyphenyl)-propionyltyrosine], in the assay on cyclooxygenase (37° C., 30 minutes), the Prostanoids is −35. Besides, the 6-keto-PGF1α in the assay with cyclooxygenase (37° C., 30 minutes, change) is −24. Further, the “AA (arachidonic acid)” value with cyclooxygenase (37° C., 30 minutes, change) is “+84”. Also, in the assay on cyclooxygenase (37° C., 30 minutes, change), the PGE2 is recorded as −54. Moreover, in the assay on cyclooxygenase (37° C., 30 minutes, change), the PGF2α was −24. In the assay with cyclooxygenase (37° C., 30 minutes, change), the TXB2 is reported as −49. The “latent time” value with "hot plate" test in mice (30 minutes post administration) is 5.59 ± 1.12 s; in the assay on "hot plate" test in mice (60 minutes post administration), 4.7 ± 0.51 s; in the assay with "hot plate" test in mice (setting [2]) it was 7.3 ± 1.09 s; in the assay with "hot plate" test in mice (240 minutes post administration), 6.78 ± 0.504 s. For the same compound, the response vs control in vivo at 10 mg/kg with "hot plate" test in mice (0.5 h, 30 minutes) was 150%; with "hot plate" test in mice (1 h, 60 minutes) it was 126%; with "hot plate" test in mice (2 h, 120 minutes), 196%; in the assay on "hot plate" test in mice (4 h, 240 minutes), 182%. In addition, the change in vivo at 10 mg/kg in the assay on "hot plate" test in mice (0.5 h, 30 minutes) was 50.3%; in the assay on "hot plate" test in mice (1 h, 60 minutes), 26.3%; in the assay on "hot plate" test in mice (2 h, 120 minutes), 96.2%; in the assay with "hot plate" test in mice (4 h, 240 minutes), 82.3%.

For the compound `COC(=O)[C@H](Cc1ccccc1)NC(=O)CCc1ccc(O)cc1` [Compound XIII, 3-(p-hydroxyphenyl)-propionylphenylalanine methyl ester], in assay [1], the inhibition in vivo at 10 mg/kg stood at 48.4%. Also, the response vs control in vivo at 10 mg/kg was found to be 51.6% in assay [1]; 107% with "hot plate" test in mice (0.5 h, 30 minutes); 122% with "hot plate" test in mice (1 h, 60 minutes); 124% in the assay on "hot plate" test in mice (2 h, 120 minutes). Moreover, the “C ± m (the number of contortions for 15 minutes)” value in assay [1] is 14.6 ± 1.8. For the same compound, the “latent time” value in the assay on "hot plate" test in mice (30 minutes post administration) was 5.9 ± 0.3 s; with "hot plate" test in mice (60 minutes post administration) it was 6.7 ± 0.7 s; with "hot plate" test in mice (setting [2]), 6.8 ± 0.3 s. The change in vivo at 10 mg/kg in the assay with "hot plate" test in mice (0.5 h, 30 minutes) came to 7.3%; with "hot plate" test in mice (1 h, 60 minutes), 21.8%; in the assay on "hot plate" test in mice (2 h, 120 minutes), 23.6%.

The values are drawn from patent publication US8309766B2 (Obschestvo S. Organichennoi Otvetstvennostiyu …, priority 2005, dated 2012).
